Source: patent publication US20160333006A1, “ARYL LACTA KINASE INHIBITORS” (Bristol-Myers Squibb Company, priority 2014, published 2016)

Molecular target: T1, GST-Xa-hAAK1 (Homo sapiens, UniProt Q2M2I8)
T1 construct: made in house
Assay: AAK1 kinase assay
Type: biochemical
Conditions: ATP 22 μM; given as IC50 range
Method: The assays were performed in U-bottom 384-well plates. […] The reactions were initiated by the combination of bacterially expressed, GST-Xa-hAAK1 with substrates and test compounds. The reactions were incubated at room temperature for 3 hours and terminated by adding 60 μl of 35 mM EDTA buffer to each sample. The reactions were analyzed on the Caliper LabChip 3000 (Caliper, Hopkinton, Mass.) by electrophoretic separation of the fluorescent substrate and phosphorylated product. […] Compounds were dissolved at 10 mM in dimethylsulfoxide (DMSO) and evaluated at eleven concentrations. IC50 values were derived by non-linear regression analysis.

T1 sequence (Q2M2I8 whole entry): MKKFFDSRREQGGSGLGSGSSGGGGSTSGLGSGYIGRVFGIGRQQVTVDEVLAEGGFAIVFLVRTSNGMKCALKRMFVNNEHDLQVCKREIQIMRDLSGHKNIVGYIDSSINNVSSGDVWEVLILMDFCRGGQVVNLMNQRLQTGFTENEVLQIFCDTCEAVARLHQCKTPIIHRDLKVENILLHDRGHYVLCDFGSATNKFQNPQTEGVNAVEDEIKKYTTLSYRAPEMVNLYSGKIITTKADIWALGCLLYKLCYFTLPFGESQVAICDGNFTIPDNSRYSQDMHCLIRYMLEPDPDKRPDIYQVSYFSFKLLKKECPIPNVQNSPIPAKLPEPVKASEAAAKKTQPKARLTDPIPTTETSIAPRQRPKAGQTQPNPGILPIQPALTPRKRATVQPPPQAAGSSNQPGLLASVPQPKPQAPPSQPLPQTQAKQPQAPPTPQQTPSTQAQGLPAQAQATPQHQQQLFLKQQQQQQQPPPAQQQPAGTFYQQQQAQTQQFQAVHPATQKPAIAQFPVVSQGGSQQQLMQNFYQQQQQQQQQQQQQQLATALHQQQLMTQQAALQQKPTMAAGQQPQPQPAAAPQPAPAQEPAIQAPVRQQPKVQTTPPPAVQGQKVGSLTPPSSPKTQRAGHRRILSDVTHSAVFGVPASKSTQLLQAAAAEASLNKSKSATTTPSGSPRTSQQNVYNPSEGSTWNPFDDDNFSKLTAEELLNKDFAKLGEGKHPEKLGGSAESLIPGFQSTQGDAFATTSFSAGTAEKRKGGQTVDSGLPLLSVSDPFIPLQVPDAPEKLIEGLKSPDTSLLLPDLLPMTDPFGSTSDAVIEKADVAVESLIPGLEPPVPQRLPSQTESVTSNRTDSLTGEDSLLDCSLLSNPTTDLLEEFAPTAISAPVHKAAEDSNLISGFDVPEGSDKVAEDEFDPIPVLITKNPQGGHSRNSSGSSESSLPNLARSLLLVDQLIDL

IC50 | Structure (SMILES)
10 to 100 nM | CC(C)Cc1cc2c3ccncc3c(=O)n(C)c2cc1OC[C@@H](N)CC(C)C [Example 110, (S)-8-((2-amino-4-methylpentyl)oxy)-9-isobutyl-6-methylbenzo[c][2,7]naphthyridin-5(6H)-one]
10 to 100 nM | Cc1nccc2c1c(=O)n(C)c1cc(OC[C@@H](N)CC(C)C)c(C(N)=O)cc21 [Example 94, (S)-8-((2-amino-4-methylpentyl)oxy)-4,6-dimethyl-5-oxo-5,6-dihydrobenzo[c][2,7]naphthyridine-9-carboxamide]
10 to 100 nM | CC(C)CC(C)COc1ccc2c3ccncc3c(=O)n(C)c2c1 (stereo not drawn) [Example 157, 8-((2,4-dimethylpentyl)oxy)-6-methylbenzo[c][2,7]naphthyridin-5(6H)-one]
1 to 10 nM | Cn1c(=O)c2cnccc2c2ccc(OCC(N)CCC(F)(F)F)cc21 (stereo not drawn) [Example 111, 8-((2-amino-5,5,5-trifluoropentyl)oxy)-6-methylbenzo[c][2,7]naphthyridin-5(6H)-one]
10 to 100 nM | CC(C)C[C@H](N)COc1ccc2c3c(F)cncc3c(=O)n(C)c2c1 [Example 85, (S)-8-((2-amino-4-methylpentyl)oxy)-1-fluoro-6-methylbenzo[c][2,7]naphthyridin-5(6H)-one]
10 to 100 nM | CC(C)C[C@H](N)COc1c(Cl)cc2c3ccncc3c(=O)n(C)c2c1Cl [Example 10, (S)-8-((2-amino-4-methylpentyl)oxy)-7,9-dichloro-6-methylbenzo[c][2,7]naphthyridin-5(6H) one]
1 to 10 nM | Cc1nccc2c1c(=O)n(C)c1cc(OCC(N)CC(C)C(F)(F)F)ccc21 (single isomer, unassigned) [Example 87]
1 to 10 nM | Cc1nccc2c1c(=O)[nH]c1cc(OC[C@@H](N)CC(C)C)ccc12 [Example 77, (S)-8-(2-amino-4-methylpentyloxy)-4-methylbenzo[c][2,7]naphthyridin-5(6H)-one]
100 to 2000 nM | COc1c(OC[C@@H](N)CC(C)C)ccc2c1[nH]c(=O)c1c(C)nccc12 [Example 99, (S)-8-(2-amino-4-methylpentyloxy)-7-methoxy-4-methylbenzo[c][2,7]naphthyridin-5(6H)-one]
10 to 100 nM | CC(C)CC(C)COc1cc2c(cc1Br)c1ccncc1c(=O)n2C (stereo not drawn) [Example 154, 9-bromo-8-((2,4-dimethylpentyl)oxy)-6-methylbenzo[c][2,7]naphthyridin-5(6H)-one]
1 to 10 nM | CC(C)C[C@H](N)COc1cc2c(cc1Cl)c1ccncc1c(=O)n2C [Example 43, (S)-8-((2-amino-4-methylpentyl)oxy)-9-chloro-6-methylbenzo[c][2,7]naphthyridin-5(6H)-one]
10 to 100 nM | Cc1nccc2c1c(=O)n(C)c1cc(OCCCC(C)C)ccc21 [Example 156, 4,6-dimethyl-8-((4-methylpentyl)oxy)benzo[c][2,7]naphthyridin-5(6H)-one]
100 to 2000 nM | Cc1nccc2c1c(=O)n(C)c1cc(OCC(O)COC(C)C)ccc21 (stereo not drawn) [Example 153, 8-(2-hydroxy-3-isopropoxypropoxy)-4,6-dimethylbenzo[c][2,7]naphthyridin-5(6H)-one]
10 to 100 nM | CC(C)CC(C)COc1ccc2c3ccncc3c(=O)n(C)c2c1 (stereo not drawn) [Example 158, 8-((2,4-dimethylpentyl)oxy)-6-methylbenzo[c][2,7]naphthyridin-5(6H)-one]
10 to 100 nM | CC(C)CCCOc1ccc2c3ccncc3c(=O)n(C)c2c1 [Example 151, 6-methyl-8-((4-methylpentyl)oxy)benzo[c][2,7]naphthyridin-5(6H)-one]
10 to 100 nM | COCc1cc2c3ccnc(C)c3c(=O)n(C)c2cc1OC[C@@H](N)CC(C)C [Example 104, (S)-8-(2-amino-4-methylpentyloxy)-9-(methoxymethyl)-4,6-dimethylbenzo[c][2,7]naphthyridin-5(6H)-one]
100 to 2000 nM | CC(C)C[C@H](N)COc1cc2c(cc1-c1ccc(F)cc1)c1ccncc1c(=O)n2C [Example 51, (S)-8-((2-amino-4-methylpentyl)oxy)-9-(4-fluorophenyl)-6 methylbenzo[c][2,7]naphthyridin-5(6H)-one]
10 to 100 nM | Cc1nccc2c1c(=O)n(C)c1cc(OC[C@@H](O)CC(C)C)ccc21 [Example 152, (S)-8-((2-hydroxy-4-methylpentyl)oxy)-4,6-dimethylbenzo[c][2,7]naphthyridin-5(6H)-one]

IC50 | Structure (SMILES)
100 to 2000 nM | CC(C)NCC(O)COc1ccc2c3ccncc3c(=O)n(C)c2c1 (stereo not drawn) [Example 146, 8-(2-hydroxy-3-(isopropylamino)propoxy)-6-methylbenzo[c][2,7]naphthyridin-5(6H)-one]
10 to 100 nM | Cc1nccc2c1c(=O)n(C)c1c(F)c(OC[C@@H](N)CC(C)C)c(Br)cc21 [Example 134, (S)-8-((2-amino-4-methylpentyl)oxy)-9-bromo-7-fluoro-4,6-dimethylbenzo[c][2,7]naphthyridin-5(6H)-one]
1 to 10 nM | Cc1nccc2c1c(=O)n(C)c1c(F)c(OC[C@@H](N)CC(C)C)c(Cl)cc21 [Example 107, (S)-8-((2-amino-4-methylpentyl)oxy)-9-chloro-7-fluoro-4,6-dimethylbenzo[c][2,7]naphthyridin-5(6H)-one]
< 1 nM | Cc1nccc2c1c(=O)n(C)c1cc(OC[C@@H](N)CC(C)C)c(C(F)F)cc21 [Example 27, (S)-8-((2-amino-4-methylpentyl)oxy)-9-(difluoromethyl)-4,6-dimethylbenzo[c][2,7]naphthyridin-5(6H)-one]
10 to 100 nM | COCCn1c(=O)c2c(C)nccc2c2cc(Br)c(OC[C@@H](N)CC(C)C)cc21 [Example 131, (S)-8-((2-amino-4-methylpentyl)oxy)-9-bromo-6-(2-methoxyethyl)-4-methylbenzo[c][2,7]naphthyridin-5(6H)-one]
1 to 10 nM | Cc1nccc2c1c(=O)n(C)c1cc(OCC(N)CC(C)C(F)(F)F)ccc21 (single isomer, unassigned) [Example 88]
10 to 100 nM | Cc1nccc2c1c(=O)n(C)c1cc(OCC(O)CNC(C)C)c(Br)cc21 (stereo not drawn) [Example 149, 9-bromo-8-(2-hydroxy-3-(isopropylamino)propoxy)-4,6-dimethylbenzo[c][2,7]naphthyridin-5(6H)-one]
1 to 10 nM | COC(=O)c1cc2c3ccnc(C)c3c(=O)n(C)c2cc1OC[C@@H](N)CC(C)C [Example 84, (S)-methyl 8-((2-amino-4-methylpentyl)oxy)-4,6-dimethyl-5-oxo-5,6-dihydrobenzo[c][2,7]naphthyridine-9-carboxylate]
10 to 100 nM | Cc1nccc2c1c(=O)n(C)c1cc(OC[C@@H](N)CC(C)C)c(C(C)C)cc21 [Example 130, (S)-8-((2-amino-4-methylpentyl)oxy)-9-isopropyl-4,6-dimethylbenzo[c][2,7]naphthyridin-5(6H)-one]
10 to 100 nM | Cc1nccc2c1c(=O)n(C)c1cc(OCC(N)CCC(F)(F)F)ccc21 (stereo not drawn) [Example 123, 8-((2-amino-5,5,5-trifluoropentyl)oxy)-4,6-dimethylbenzo[c][2,7]naphthyridin-5(6H)-one]
1 to 10 nM | COCCn1c(=O)c2c(C)nccc2c2cc(Cl)c(OC[C@@H](N)CC(C)C)cc21 [Example 79, (S)-8-((2-amino-4-methylpentyl)oxy)-9-chloro-6-(2-methoxyethyl)-4-methylbenzo[c][2,7]naphthyridin-5(6H)-one]
1 to 10 nM | Cc1cc2c3ccncc3c(=O)n(C)c2cc1OC[C@@H](N)CC(C)C [Example 4, (S)-8-((2-amino-4-methylpentyl)oxy)-6,9-dimethylbenzo[c][2,7]naphthyridin-5(6H)-one]
1 to 10 nM | Cc1nccc2c1c(=O)n(C)c1cc(OC[C@@H](N)CC(C)C)c(C3CC3)cc21 [Example 125, (S)-8-((2-amino-4-methylpentyl)oxy)-9-cyclopropyl-4,6-dimethylbenzo[c][2,7]naphthyridin-5(6H)-one]
< 1 nM | CN[C@H](COc1cc2c(cc1C#N)c1ccnc(C)c1c(=O)n2C)CC(C)C [Example 65, (S)-4,6-dimethyl-8-(4-methyl-2-(methylamino)pentyloxy)-5-oxo-5,6-dihydrobenzo[c][2,7]naphthyridine-9-carbonitrile]
< 1 nM | Cc1nccc2c1c(=O)n(C)c1cc(OCC(N)CCC(F)(F)F)c(Cl)cc21 (stereo not drawn) [Example 124, 8-((2-amino-5,5,5-trifluoropentyl)oxy)-9-chloro-4,6-dimethylbenzo[c][2,7]naphthyridin-5(6H)-one]
100 to 2000 nM | Cc1nccc2c1c(=O)n(C)c1c(F)c(OC[C@@H](N)CC(C)C)ccc21 [Example 81, (S)-8-(2-amino-4-methylpentyloxy)-7-fluoro-4,6-dimethylbenzo[c][2,7]naphthyridin-5(6H)-one]
100 to 2000 nM | Cc1nccc2c1c(=O)n(C)c1cc(OCC(C)CC(C)C)ccc21 (stereo not drawn) [Example 155, 8-((2,4-dimethylpentyl)oxy)-4,6-dimethylbenzo[c][2,7]naphthyridin-5(6H)-one]
< 1 nM | Cc1nccc2c1c(=O)n(CCO)c1cc(OC[C@@H](N)CC(C)C)c(Cl)cc21 [Example 132, (S)-8-((2-amino-4-methylpentyl)oxy)-9-chloro-6-(2-hydroxyethyl)-4-methylbenzo[c][2,7]naphthyridin-5(6H)-one]

Structure (SMILES) | IC50
Cc1nccc2c1c(=O)n(C)c1cc(OCC(N)CC(F)(F)F)c(Br)cc21 (stereo not drawn) [Example 137, 8-(2-amino-4,4,4-trifluorobutoxy)-9-bromo-4,6-dimethylbenzo[c][2,7]naphthyridin-5(6H)-one] | 1 to 10 nM
Cn1c(=O)c2cnccc2c2ccc(OCC(N)CC(F)(F)F)cc21 (single isomer, unassigned) [Example 135, 8-(2-amino-4,4,4-trifluorobutoxy)-6-methylbenzo[c][2,7]naphthyridin-5(6H)-one] | 10 to 100 nM
Cn1c(=O)c2cnccc2c2ccc(OCC(N)CC(F)(F)F)cc21 (single isomer, unassigned) [Example 136, 8-(2-amino-4,4,4-trifluorobutoxy)-6-methylbenzo[c][2,7]naphthyridin-5(6H)-one] | 1 to 10 nM
